Reference: US20260373248A1, “DEGRADABLE PEPTOIDS” (Medici Therapeutics, Inc., priority 2023, published 2026)
Non-standard residues stand in square brackets, D forms with d. Residues, ends and D or L forms follow the SMILES beside them. *: point of attachment. Gly(N-(3-decanoyloxypropyl)) = CCCCCCCCCC(=O)OCCCNCC(=O)O; N(3-lauroyloxypropyl)Gly = CCCCCCCCCCCC(=O)OCCCNCC(=O)O; N(2-decanoyloxyethyl)Gly = CCCCCCCCCC(=O)OCCNCC(=O)O; N(3-imidazol-1-ylpropyl)Gly = O=C(O)CNCCCn1ccnc1; Gly(N-3-morpholinopropyl) = O=C(O)CNCCCN1CCOCC1; N(2-ethylhexyl)Gly = CCCCC(CC)CNCC(=O)O; N(CH(CH2OH)2)Gly = O=C(O)CNC(CO)CO; N(octyl)Gly = CCCCCCCCNCC(=O)O; NHexGly = CCCCCCNCC(=O)O; For = O=C*

Tests used:
luciferase = assay: Luciferase expression after local (intramuscular or subcutaneous) administration of mRNA; format: in vivo; conditions: mRNA 0.01 mpk, 6 hours; for IM Flux: intramuscular; for SC Flux: subcutaneous
In short: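 Female Balb/c mice (6-8 weeks) received fLuc mRNA in aminolipidated peptoid Nutshells at 0.01 mpk subcutaneously or intramuscularly, or 0.1 mpk intratumorally. At 6 hours, anesthetized mice were given D-luciferin IP and imaged 10 minutes later; harvested organs were also imaged and total photon flux quantified in regions of interest.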

firefly luciferase = assay: In vivo firefly luciferase expression after intravenous injection of fLuc mRNA delivery vehicles (IVIS imaging); design: species or system female Balb/c mice; conditions: for Total Flux (luciferase expression): fLuc mRNA, intravenous, Balb/c mice; for Total Flux: mice, 2.5 ug fLuc mRNA intravenously, 6 hours post-injection
In short: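 Female Balb/c mice (6-8 weeks) given 2.5 ug fLuc mRNA in Nutshells IV. At 6 hours, IP D-luciferin (30 mg/mL, 10 μL/g) under isoflurane; IVIS imaging 10 minutes later, then harvested organs imaged ex vivo. Read-out: total photon flux in regions of interest.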

hEPO = assay: Quantification of hEPO in serum after IV injection of mRNA (Human EPO ELISA); format: in vivo; conditions: Balb/c mice, 2.5 μg mRNA IV, serum after 6 hours
Procedure: Balb/c mice were treated with 2.5 μg of mRNA coding for human erythropoiten via IV injection according to a similar method as in Example 4. hEPO protein in the serum was quantified after 6 hours using the Human EPO ELISA Kit from Invitrogen (catalog #BMS2035-2). Wash buffer (PBS with 1% tween 20) and assay buffer (PBS with 1% tween 20, 10% BSA) were prepared from a 20× concentrate with milli-Q water. Serum samples were diluted with PBS according to expected EPO concentration, with a 50× dilution for low expression samples and up to a 30,000× dilution for samples expected to have high expression. Microwell strips were washed in a plate washer with wash buffer and tapped on an absorbent pad to remove excess buffer. 100 μL of sample diluent were added to each well that will be used for the standard curve. 50 μL of sample diluent was added to each sample well.
The standard curve was prepared by reconstituting the human erythropoietin standard by adding the volume of water listed on the vial label. Standard was swirled gently and allowed to reconstitute for 10 minutes prior to use, then 100 μL is added to standard wells and mixed well. 100 μL from standard wells were then transferred to sample wells and mixed well. This was repeated 5 times to produce 2 columns of standard dilutions from 100 to 1.6 mIU/mL. 100 μL was discarded from the last microwells. The final 2 wells contained 100 μL of sample diluent and served as a blank. An external standard was also included to facilitate a mIU/mL conversion to ng/mL. The same serial dilution method was repeated starting with the external standard at 6.25 ng/mL. Once the standards were added, 50 μL of each sample was added in duplicate to the sample wells. Next, the biotin-conjugate was prepared by diluting 1:100 in assay buffer. 50 μL of biotin-conjugate was added to all wells and the plate was covered with a plate seal and shaken at room temperature for 1 hour. During the last few minutes of shaking, streptavidin-HRP was prepared by diluting 1:100 in assay buffer. The plate was washed on a plate washer and tapped on an absorbent pad to remove remaining wash buffer.
100 μL of the diluted streptavidin-HRP was added to each well and the plate was sealed and shaken for 15 minutes at room temperature. After 15 minutes, the plate seal was removed and the plate was washed on a plate washer and remaining wash buffer tapped out on an absorbent pad. 100 μL of TMB substrate was added to all wells and the plate was incubated for 10 minutes at room temperature out of direct light. Color development was checked every few minutes and the assay was stopped when the highest standard was dark blue. The reaction was stopped by pipetting 100 μL of stop solution into each well. Immediately after stop solution was added, the plate was gently tapped to ensure the solution was mixed. Absorbance was then read at 450 nm for each well. A standard curve was plotted for both the kit-provided standards (mIU/mL) and the external standard (ng/mL) and fit using Prism. Sample absorbances that fell within the standard curve were interpolated and adjusted for dilution (including a 2× assay dilution). Samples that were not within the standard curve were repeated at an adjusted dilution.

mRNA = mRNA encapsulation (modified Quant-iT RiboGreen assay); format: physicochemical; conditions: for mean percent encapsulation of RNA: RiboGreen, without vs with Triton X-100; for % Encapsulation: mRNA
In short: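 Peptoid nanoparticles were incubated with Triton X-100 for 10 min to release entrapped mRNA, then mixed with RiboGreen reagent and read by fluorescence (ex 485 nm/em 530 nm). Percent encapsulation was derived from the ratio of fluorescence without versus with Triton X-100.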

[1] = Peptoid quantity remaining in liver by HPLC-TOF mass spectrometry; format: in vivo; conditions: liver homogenate
Procedure: Peptoid quantity in liver was determined via high-performance liquid chromatography coupled with time-of-flight mass spectrometer (HPLC-TOF). The entire liver was weighed, and then two sections were isolated using a provided biopsy punch for liver homogenization. Liver homogenate sample was prepared by resuspending 20 mg liver tissue in 400 μL extraction solvent (IPA/MeOH=8/2) containing an internal standard (400 pg/μL) followed by bead homogenization (45 sec per cycle for 3-4 cycles). Homogenized samples were centrifuged at 12,000 rpm for 8 min at 6 °C. The resulting supernatant was collected and stored at −20 °C for further LC analysis. 5 μL of the resulting supernatant sample from solid or liquid tissue was injected into a BEH C8 column on an Agilent 1290 Infinity II liquid chromatograph coupled with an Agilent 6230 LC-TOF system. Concentrations of peptoids were determined by a linear calibration curve (linear range:0.2-50 μg/g for solid tissue). Standard calibration curve solutions were prepared by spiking untreated liver followed by homogenization and centrifugation.

[2] = Delivery vehicle size and polydispersity by dynamic light scattering; format: physicochemical
In short: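 LNPs made by microfluidic mixing of ethanolic peptoid/DSPC/cholesterol/DMG-PEG2000 (20:1.79:7.16:1.84 by weight) with mRNA in 10 mM citrate pH 5.0 at 1:3 by volume, then dialyzed overnight at 4 °C against tris-sucrose pH 7.4. Size and PDI read by dynamic light scattering in PBS.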

[3] = DLS in PBS, peptoid:DSPC:Cholesterol:DMG-PEG2000 weight ratio 20:1.79:7.16:1.84, mRNA

Compound | IM Flux (luciferase) [p/s] | SC Flux (luciferase) [p/s] | Total Flux (luciferase expression) (firefly luciferase; formulation recipe D22) [p/s] | Total Flux (firefly luciferase) [p/s] | hEPO (hEPO) [ng/mL] | mean percent encapsulation of RNA (mRNA) [%] | % Encapsulation (mRNA; formulation recipe D22) [%] | % of injected dose remaining in liver [1] [%] | PDI [2, 3] | Particle Size [2, 3] [nm] | Particle Size ([2]; formulation recipe D22) [nm] | Total Flux (luciferase expression) (firefly luciferase; formulation recipe R5) [p/s] | % Encapsulation (mRNA; formulation recipe R5) [%] | Particle Size ([2]; formulation recipe R5) [nm] | further results
CCCCCCCCCCCC(=O)OCCCN(CC(=O)N(CC(=O)N(CCCn1ccnc1)CC(=O)N(CC(=O)N(CCCOC(=O)CCCCCCCCCCC)CC(=O)N(CC(N)=O)CC(CC)CCCC)CC(CC)CCCC)CC(CC)CCCC)C(=O)CN(C=O)CC(CC)CCCC (stereo not shown) [Compound 82] (For-[N(2-ethylhexyl)Gly][N(3-lauroyloxypropyl)Gly][N(2-ethylhexyl)Gly][N(3-imidazol-1-ylpropyl)Gly][N(2-ethylhexyl)Gly][N(3-lauroyloxypropyl)Gly][N(2-ethylhexyl)Gly]-NH2) | 1.24E+08 | 1.41E+08 | 2.62E+09 | 2.62E+09 | 600 | 70.7 | 70.7 | 15.77 | 0.163 | 81.5 | 81.5 |  |  |  | Total Flux (luciferase expression) (firefly luciferase; formulation recipe F2): 4.10E+08 p/s; Total Flux (luciferase expression) (firefly luciferase; formulation recipe X29): 2.83E+09 p/s; Total Flux (luciferase expression) (firefly luciferase; formulation recipe X145): 5.70E+09 p/s; % Encapsulation (mRNA; formulation recipe F2): 75.3%; % Encapsulation (mRNA; formulation recipe X29): 62.0%; % Encapsulation (mRNA; formulation recipe X145): 70.9%; Particle Size ([2]; formulation recipe F2): 65.9 nm; Particle Size ([2]; formulation recipe X29): 72.1 nm; Particle Size ([2]; formulation recipe X145): 80.7 nm
CCCCCCCCCC(=O)OCCN(CC(=O)N(CCOC(=O)CCCCCCCCC)CC(=O)N(CC(=O)N(CCOC(=O)CCCCCCCCC)CC(=O)N(CCOC(=O)CCCCCCCCC)CC(=O)N(CC(N)=O)CC(CC)CCCC)CC(CC)CCCC)C(=O)CNCCCn1ccnc1 (stereo not shown) [Compound 79] (H-[N(3-imidazol-1-ylpropyl)Gly][N(2-decanoyloxyethyl)Gly][N(2-decanoyloxyethyl)Gly][N(2-ethylhexyl)Gly][N(2-decanoyloxyethyl)Gly][N(2-decanoyloxyethyl)Gly][N(2-ethylhexyl)Gly]-NH2) | 1.31E+08 | 1.59E+08 |  | 1.60E+09 | 320 | 97.5 |  | 19.72 | 0.108 | 61.0 |  |  |  |  | 
CCCCCCCCCC(=O)OCCCN(C=O)CC(=O)N(CCCOC(=O)CCCCCCCCC)CC(=O)N(CC(=O)N(CCCN1CCOCC1)CC(=O)N(CCCOC(=O)CCCCCCCCC)CC(=O)N(CCCOC(=O)CCCCCCCCC)CC(=O)N(CC(N)=O)CC(CC)CCCC)CC(CC)CCCC (stereo not shown) [Compound 112] (For-[Gly(N-(3-decanoyloxypropyl))][Gly(N-(3-decanoyloxypropyl))][N(2-ethylhexyl)Gly][Gly(N-3-morpholinopropyl)][Gly(N-(3-decanoyloxypropyl))][Gly(N-(3-decanoyloxypropyl))][N(2-ethylhexyl)Gly]-NH2) | 1.80E+08 | 2.33E+08 |  | 1.13E+09 | 345 | 39.2 |  | 0.19 | 0.138 | 95.4 |  | 2.67E+08 | 71.6 | 87.6 | 
CCCCCCCCCC(=O)OCCCN(CC(=O)N(CC(=O)N(CCCCCC)CC(=O)N(CCCOC(=O)CCCCCCCCC)CC(=O)N(CC(=O)N(CCCCCC)CC(N)=O)CC(CC)CCCC)CC(CC)CCCC)C(=O)CNC(CO)CO (stereo not shown) [Compound 55] (H-[N(CH(CH2OH)2)Gly][Gly(N-(3-decanoyloxypropyl))][N(2-ethylhexyl)Gly][NHexGly][Gly(N-(3-decanoyloxypropyl))][N(2-ethylhexyl)Gly][NHexGly]-NH2) | 5.29E+07 | 9.41E+07 |  | 6.22E+08 | 63.1 | 26.3 |  | 4.59 | 0.139 | 90.2 |  |  |  |  | 
CCCCCCCCCC(=O)OCCCN(CC(=O)N(CC(N)=O)CC(CC)CCCC)C(=O)CN(CCCCCCCC)C(=O)CN(CC(CC)CCCC)C(=O)CN(CCCOC(=O)CCCCCCCCC)C(=O)CN(CCCCCCCC)C(=O)CNC(CO)CO (stereo not shown) [Compound 32] (H-[N(CH(CH2OH)2)Gly][N(octyl)Gly][Gly(N-(3-decanoyloxypropyl))][N(2-ethylhexyl)Gly][N(octyl)Gly][Gly(N-(3-decanoyloxypropyl))][N(2-ethylhexyl)Gly]-NH2) | 1.45E+08 | 9.18E+08 | 7.45E+09 | 7.45E+09 | 642 | 59.3 | 59.3 | 8.18 | 0.156 | 89.3 | 89.3 | 5.34E+08 | 86.0 | 65.5 | Total Flux (luciferase expression) (firefly luciferase; formulation recipe R2): 7.39E+08 p/s; Total Flux (luciferase expression) (firefly luciferase; formulation recipe R6): 9.19E+08 p/s; Total Flux (luciferase expression) (firefly luciferase; formulation recipe R7): 1.41E+09 p/s; Total Flux (luciferase expression) (firefly luciferase; formulation recipe R9): 8.16E+08 p/s; % Encapsulation (mRNA; formulation recipe R2): 88.2%; % Encapsulation (mRNA; formulation recipe R6): 93.7%; % Encapsulation (mRNA; formulation recipe R7): 79.1%; % Encapsulation (mRNA; formulation recipe R9): 92.7%; Particle Size ([2]; formulation recipe R2): 71.0 nm; Particle Size ([2]; formulation recipe R6): 68.4 nm; Particle Size ([2]; formulation recipe R7): 65.1 nm; Particle Size ([2]; formulation recipe R9): 64.9 nm
